The source of these data is patent US4400377A, “Use of polypeptides as analgesic drugs” (priority 1982, dated 1983).

Read-outs that look alike come from different tables or passages of the source. Square brackets hold non-standard residues; d marks the D form. Peptide text beside a SMILES is read from it. sY = N[C@@H](Cc1ccc(OS(=O)(=O)O)cc1)C(=O)O; pGlu = O=C1CC[C@@H](C(=O)O)N1

For series [1], the system named is patients suffering from chronic pain in cancer diseases. As to conditions: i.v. bolus 1 nanogram/kg, single patients.
Series [2] relates to patients with pain after surgery.

In the case of `CSCC[C@H](NC(=O)[C@H](Cc1c[nH]c2ccccc12)NC(=O)CNC(=O)[C@@H](NC(=O)[C@H](Cc1ccc(OS(=O)(=O)O)cc1)NC(=O)[C@H](CC(=O)O)NC(=O)[C@H](CCC(N)=O)NC(=O)[C@@H]1CCC(=O)N1)[C@@H](C)O)C(=O)N[C@@H](CC(=O)O)C(=O)N[C@@H](Cc1ccccc1)C(N)=O` [Ceruletide, ceruletide] ([pGlu]QD[sY]TGWMDF-NH2), the Side-effects entry in series [1] was “None”; in series [2] (i.m. 0.05 micrograms/kg, single patients (incl. second injection in patients 34, 40)), “None”; in series [2] (i.m. 0.1 micrograms/kg, single patients), “None and Burning sensation at the injection site and pain sensation at the injection site”.
